The supplement of paper PMC10307832

Legend:
Experiment in all cases: relative viability (nuclei count vs DMSO), 5 days (fraction); higher = more cells survive
Tanzisertib + Decitabine = compound: O[C@H]1CC[C@H](Nc2ncc3nc(Nc4c(F)cc(F)cc4F)n([C@H]4CCOC4)c3n2)CC1 [Tanzisertib] + Nc1ncn([C@H]2C[C@H](O)[C@@H](CO)O2)c(=O)n1 [Decitabine] (partner 2 µM)
Outline: (§1)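 Dosing by pin tool came one day after lung cancer cell lines were seeded in 1536-well plates, using either one drug or a fixed anchor-drug dose plus five library-drug doses (not always all listed) in √10 steps. After 5 days, nuclei were counted on 4× images. Relative viability is treated-well nuclei count divided by vehicle-well nuclei count, and values are medians of duplicate plates.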

[1] = compound: C[C@@H](N)c1ccc(C(=O)Nc2ccnc3[nH]ccc23)cc1 + N=C(N)NC(=N)NCCc1ccccc1 [Phenformin] (partner 250 µM)
Outline: as §1

[2] = compound: C[C@@H](N)c1ccc(C(=O)Nc2ccnc3[nH]ccc23)cc1 + Cc1nc(Nc2ncc(C(=O)Nc3c(C)cccc3Cl)s2)cc(N2CCN(CCO)CC2)n1 [Dasatinib] (partner 0.075 µM)
Outline: as §1

[3] = compound: C[C@@H](N)c1ccc(C(=O)Nc2ccnc3[nH]ccc23)cc1 + NC(=O)Nc1cc(-c2cccc(F)c2)sc1C(=O)N[C@H]1CCCNC1 [AZD7762] (partner 0.2 µM)
Outline: as §1

Cell Line	relative viability (Tanzisertib + Decitabine; first compound 0.08 µM)	relative viability (Tanzisertib + Decitabine; first compound 0.253 µM)	relative viability (Tanzisertib + Decitabine; first compound 0.8 µM)	relative viability (Tanzisertib + Decitabine; first compound 2.53 µM)	relative viability (Tanzisertib + Decitabine; first compound 8 µM)	relative viability ([1]; first compound 0.04 µM)	relative viability ([1]; first compound 0.1265 µM)	relative viability ([1]; first compound 0.4 µM)	relative viability ([1]; first compound 4 µM)	relative viability ([2]; first compound 0.04 µM)	relative viability ([2]; first compound 0.1265 µM)	relative viability ([2]; first compound 0.4 µM)	relative viability ([2]; first compound 4 µM)	relative viability ([3]; first compound 0.04 µM)	relative viability ([3]; first compound 0.1265 µM)	relative viability ([3]; first compound 0.4 µM)	relative viability ([3]; first compound 4 µM)	relative viability ([3]; first compound 1.265 µM)	relative viability ([1]; first compound 1.265 µM)	relative viability ([2]; first compound 1.265 µM)
NCI-H23	0.3	0.301	0.32	0.282	0.374	0.744	0.798	0.85	0.732	0.77	0.736	0.862	0.76	0.268	0.169	0.372	0.539			
NCI-H322M	0.724	0.743	0.746	0.705	0.695	0.874	0.886	0.871	0.72	0.242	0.253	0.266	0.318	0.544	0.66	0.647	0.777	0.837		
NCI-H358	0.232	0.221	0.189	0.248	0.181	0.374	0.358	0.314	0.246	0.173	0.193	0.169	0.18	0.605	0.47	0.485	0.472	0.478	0.32	0.165
NCI-H441	0.237	0.239	0.261	0.238	0.257	0.879	0.995	0.879	0.74	0.671	0.739	0.867	0.667	1.29	0.841	1.49	1.13	1.21		
NCI-H460	0.54	0.465	0.479	0.467	0.497	0.509	0.522	0.558	0.495	0.463	0.525	0.451	0.337	0.66	0.656	0.844	0.913	0.873	0.535	0.27
NCI-H522	0.807	0.699	0.618	0.803	0.636	0.69	0.549	0.668	0.402	0.797	0.931	0.827	0.765	0.833	0.759	0.979	0.813	0.971	0.591	0.771
NCI-H596	0.986	1.08	0.982	1	0.863	0.781	0.668	0.804	0.713	0.671	0.537	0.493	0.557	1.02	1.1	0.828	1.04	1.01		
NCI-H647	0.437	0.329	0.334	0.457	0.578	0.443	0.488	0.516	0.51	0.15	0.172	0.157	0.133	0.397	0.423	0.517	0.439	0.392	0.476	0.166
NCI-H650	0.33	0.321	0.305	0.337	0.284		0.424	0.46	0.411		0.41	0.393	0.32		1.09	0.992	0.886		0.203	0.245
NCI-H727	0.941	0.875	0.702	0.89	0.755	0.583	0.653	0.669	0.756	0.628	0.529	0.71	0.725	1.04	0.801	0.788	0.833	0.996	0.748	0.479
NCI-H838	0.455	0.468	0.459	0.483	0.481	0.378	0.527	0.501	0.221	0.221	0.305	0.26	0.233	0.848	0.957	0.936	0.752	0.852	0.247	0.187
NCI-H1355	0.374	0.388	0.369	0.388	0.361	0.393	0.469	0.498	0.388	0.516	0.738	0.764	0.427	0.761	0.819	0.901	0.871	0.91	0.436	0.671
NCI-H1395	0.798	0.726	0.747	0.737	0.72	0.433	0.497	0.436	0.453	0.416	0.431	0.368	0.399	0.396	0.391	0.395	0.39		0.36	0.394
NCI-H1437	0.622	0.572	0.606	0.629	0.533	0.335	0.346	0.35	0.336	0.451	0.292	0.372	0.393	1.12	1.13	1.14	1.04	1.13	0.324	0.471
NCI-H1651	0.615	0.66	0.474	0.591	0.537	0.426	0.315	0.312	0.301	0.389	0.429	0.414	0.41	0.484	0.493	0.574	0.675	0.737	0.372	0.288
NCI-H1666	0.766	0.714	0.658	0.704	0.679	0.534	0.603	0.651	0.561	0.727	0.803	0.822	0.625	0.824	0.953	1.13	0.98	1.12	0.631	0.722
NCI-H1734	0.492	0.492	0.399	0.52	0.441	0.355	0.383	0.431	0.397	0.347	0.445	0.38	0.351	0.461	0.526	0.575	0.57	0.414	0.282	0.284

Cell Line	relative viability (Tanzisertib + Decitabine; first compound 0.08 µM)	relative viability (Tanzisertib + Decitabine; first compound 0.253 µM)	relative viability (Tanzisertib + Decitabine; first compound 0.8 µM)	relative viability (Tanzisertib + Decitabine; first compound 2.53 µM)	relative viability (Tanzisertib + Decitabine; first compound 8 µM)	relative viability ([1]; first compound 0.04 µM)	relative viability ([1]; first compound 0.1265 µM)	relative viability ([1]; first compound 0.4 µM)	relative viability ([1]; first compound 4 µM)	relative viability ([2]; first compound 0.04 µM)	relative viability ([2]; first compound 0.1265 µM)	relative viability ([2]; first compound 0.4 µM)	relative viability ([2]; first compound 4 µM)	relative viability ([3]; first compound 0.04 µM)	relative viability ([3]; first compound 0.1265 µM)	relative viability ([3]; first compound 0.4 µM)	relative viability ([3]; first compound 4 µM)	relative viability ([3]; first compound 1.265 µM)	relative viability ([1]; first compound 1.265 µM)	relative viability ([2]; first compound 1.265 µM)
NCI-H1755	0.737	0.701	0.705	0.754	0.726	0.504	0.687	0.657	0.426	0.292	0.449	0.457	0.223	0.408	0.46	0.451	0.397	0.362	0.525	0.316
NCI-H1792	0.668	0.539	0.487	0.569	0.566	0.286		0.15	0.357	0.831	0.875	0.826	0.534	0.564	0.534	0.69	0.578	0.72	0.278	0.672
NCI-H1793	0.533	0.48	0.509	0.51	0.453	0.355	0.424	0.421	0.393	0.308	0.419	0.418	0.298	0.409	0.62	0.442	0.73			
NCI-H1915	0.288	0.275	0.264	0.257	0.279	0.289	0.37	0.38	0.319	0.315	0.262	0.276	0.308		0.785	0.697	0.691			
NCI-H1944	0.453	0.416	0.43	0.397	0.459	0.157	0.216	0.153	0.138	0.183	0.192	0.182	0.159	0.479	0.542	0.611	0.606	0.798	0.165	0.183
NCI-H1975	0.406	0.41	0.295	0.373	0.39	0.359	0.405	0.39	0.255	0.408	0.459	0.363	0.262	0.593	0.613	0.688	0.434	0.513	0.347	0.369
NCI-H1993	0.723	0.732	0.589	0.438	0.539	0.597	0.501	0.528	0.547	0.745	0.754	0.856	0.8	0.867	0.817		1.26	1.04	0.502	0.917
NCI-H2085		0.603	0.583	0.54	0.549	0.628	0.77	0.778	0.636	0.294	0.322	0.421	0.391	0.947	0.914	0.96	1.09	1.13	0.359	0.33
NCI-H2087	0.35	0.268	0.276	0.244	0.33	0.497	0.571	0.554	0.557	0.956	0.912	0.869	0.65	1.29	1.06	1.07	1.08	1.06		
NCI-H2126	0.558	0.586	0.574	0.592	0.658	0.588	0.558	0.592	0.502	0.72	0.664	0.622	0.619	1.01	1.04	1.17	1.12	0.982	0.505	0.626
NCI-H2170	0.483	0.479	0.465	0.485	0.435	0.401	0.442	0.492	0.38	0.774	0.595	0.639	0.528	0.972	0.935	1.05	0.832	0.827	0.353	0.518
NCI-H2342	0.78	0.778	0.694	0.781	0.815	0.718	0.731	0.676	0.622	0.342	0.357	0.322	0.327	0.508	0.643	0.534	0.584	0.611	0.718	0.317
NCI-H2347	0.634	0.657	0.701	0.635	0.648	0.502	0.532	0.546	0.584	0.54	0.314	0.374	0.574	0.825	0.603	0.973	1.01	0.878		
NCI-H2405	0.784	0.783	0.76	0.914	0.629	0.176	0.449	0.369	0.218	0.186	0.2	0.187	0.162		0.702	0.438	0.179	0.253	0.264	0.19
NCI-H3122	0.43	0.409	0.412	0.366	0.439	0.352	0.413	0.39	0.377	1.06	0.882	0.919	0.915	1.13	0.982	1.06	0.955	1.06		0.455
PC-3 [JPC-3]	0.836	0.787	0.803	0.801	0.737	0.473	0.495	0.477	0.456	0.951	1	1.02	0.82	1.09	0.87	0.925	0.912	1.05	0.474	0.901
PC-14	0.261	0.23	0.212	0.192	0.202	0.409	0.653	0.555	0.519	0.216	0.29	0.246	0.131	0.251	0.347	0.364	0.469	0.313	0.348	0.206
